The test system of data set [1] is patients with type 2 diabetes. To be noted: overt diabetic nephropathy; cited from earlier work.
Data set [2] in a line: Storage of Form A crystals at room temperature (XRPD and HPLC control). It is filed as physicochemical. The note with it: 20-25° C., 92% relative humidity. Here is the method: All XRPD patterns for the solid forms described herein have been obtained as described hereafter. X-ray powder diffraction patterns were collected on a Bruker D8 Advance X-ray diffractometer equipped with a Lynxeye detector operated with CuKα-radiation in reflection mode (coupled two Theta/Theta). Typically, the X-ray tube was run at of 40 kV/40 mA. A step size of 0.02° (2θ) and a step time of 76.8 sec over a scanning range of 3-50° in 2θ were applied. The divergence slit was set to fixed 0.3. Powders were slightly pressed into a silicon single crystal sample holder with depth of 0.5 mm and samples were rotated in their own plane during the measurement. Diffraction data are reported using combined Cu Kα1 and Kα2 radiation, without Kα2 stripping. The accuracy of the 2θ values as provided herein is in the range of +/−0.1-0.2° as it is generally the case for conventionally recorded X-ray powder diffraction patterns. A sample of Form A crystals of the COMPOUND (as obtained according to Example 1 above) has been stored at a temperature of 20-25° C. at 92% relative humidity for 2 months. […] The same result was obtained after storage for 8 weeks under the above conditions.

The nature of data set [3]: Hygroscopicity by gravimetric vapor sorption (GVS). It is filed as physicochemical. The source says: Mass increase of a sample as obtained according to Example 1 in the first cycle from 40% r.h. to 80% r.h. corresponds to 0.4%. At 95% r.h. 2.2% moisture were taken up in a reversible way without hysteresis upon drying.
Another data set relates to patients with rHT. The note with it: 14 week phase 3 trial, versus 12% in each of the other groups; cited from earlier work.
The subject of data set [4] is Spontaneously hypertensive rats (SHR). Kind of data set: Blood pressure by telemetry in SHR, SGLT-2 inhibitor alone or in combination with ACT-132577. It is filed as in vivo, rat. To be noted: 30 mg/kg/day by gavage. From the text: Spontaneously hypertensive rats (SHR) are instrumented micro-surgically with a telemetry pressure transmitter implanted in the peritoneal cavity (Data Science International, Minnesota, USA) under isoflurane-induced narcosis. In brief, the pressure catheter is inserted into the aorta, below the renal artery pointing upstream. The abdomen is closed and the transmitter sutured to the abdominal musculature. Blood pressure is collected continuously using the Dataquest ART Platinum acquisition system (version 4.36). Drugs (ACT-132577 or SGLT2 inhibitors) or vehicle are administered by gavage (n=4-7 per group) alone or in combination. Systolic, mean and diastolic arterial pressures, and heart rate are collected at 5-minute intervals until the blood pressure curve comes back to baseline.
Because it takes several days for the SGLT2 inhibitors to exert an effect on blood pressure, rats are treated first for 12 days with either vehicle (5 ml/kg/day), or canagliflozin (30 mg/kg/day) or empagliflozin (30 mg/kg/day), then ACT-132577 (30 mg/kg/day) is co-administered for 3 additional days.

Data set [5] concerns conscious, male spontaneaously hypertensive rats. Description: Acute effects of Exforge HCT alone or with ACT-132577 or spironolactone in SHRs. It is filed as in vivo, rat. The note with it: aprocitentan 100 mg/kg or spironolactone 300 mg/kg oral. Here is the method: The acute effects of Exforge HCT® (i.e. a fixed dose combination of valsartan/amlodipine/hydrochlorothiazide; dosage adapted for 1.6 mg/kg/0.1 mg/kg/0.25 mg/kg for valsartan/amlodipine/hydrochlorothiazide, respectively) on blood pressure, in particular on mean arterial blood pressure (hereafter “MAP”), and heart rate (hereafter “HR”) in combination with ACT-132577 or spironolactone can be evaluated by means of telemetry in conscious, male spontaneaously hypertensive rats (hereafter “SHRs”—see details about this model in Atanur et al., Genome Res. (2010), 20, 791-803).
9 SHRs per treatment group are used for this test. To match the maximal effect on blood pressure of co-administereds drug in this model, aprocitentan 100 mg/kg is administrated orally on the 3rd day following 3-day oral administration of Exforge HCT® mg/kg and spironolactone 300 mg/kg is co-administered orally with Exforge HCT® on the 1st day followed by 2 days of Exforge HCT® administration. The results obtained regarding MAP are summarised in FIGS. 15 and 16 wherein each data point is presented as a 6-hour mean.

The subject of data set [6] is conscious, male hypertensive deoxycorticosterone acetate salt rats. Description: Acute effects of Exforge HCT alone or with ACT-132577 or spironolactone in DOCA-salt rats. It is filed as in vivo, rat. To be noted: aprocitentan 10 mg/kg or spironolactone 300 mg/kg, single oral doses. The source says:
Res. (1975), 36, 300-309). In the DOCA-salt rats, hypertension is induced by the combination of unilateral nephrectomy, implantation of pellets of the mineralocorticoid analog DOCA, and provision of 1% sodium chloride in drinking water. 7-9 DOCA-salt rats per treatment group are used for this test. The results obtained regarding MAP are summarised in FIGS. 17 and 18 wherein each data point is presented as a 6-hour mean.

As to `COc1ccccc1Oc1c(NS(=O)(=O)c2ccc(C)cn2)nc(-c2ccncc2)nc1OC` [Avosentan, avosentan], in data set [1], the “Albumin-to-creatinine ratio (ACR)” value is reported as “significantly reduced”. Take `NS(=O)(=O)Nc1ncnc(OCCOc2ncc(Br)cn2)c1-c1ccc(Br)cc1` [Form A, {5-(4-bromo-phenyl)-6-[2-(5-bromo-pyrimidin-2-yloxy)-ethoxy]-pyrimidin-4-yl}-sulfamide]: the “X-ray powder diffraction of the sample after storage” value in data set [2] (2 months) is on record as “still consisting only in Form A crystals”. For the same molecule, the “HPLC control after storage (change in peak area %, degradation)” value in data set [2] (8 weeks) is on record as “no significant degradation”. Also, the Moisture taken up in data set [3] (at 95% r.h., reversible, without hysteresis upon drying) came out at 2.2%. Further, the Mass increase in data set [3] (first cycle from 40% r.h. to 80% r.h.) was 0.4%. Besides, the “Hygroscopicity (GVS)” value in data set [3] (sample as obtained according to Example 1) is given as “slightly hygroscopic”. For `COc1cc(OC)nc(O[C@H](C(=O)O)C(OC)(c2ccccc2)c2ccccc2)n1` [darusentan], in the data set with patients with rHT, the “Fluid retention/edema (most frequent adverse event)” value is 28%. Regarding `OC[C@H]1O[C@@H](c2ccc(Cl)c(Cc3ccc(O[C@H]4CCOC4)cc3)c2)[C@H](O)[C@@H](O)[C@@H]1O` [empagliflozin, reference compound], the “Maximal effect on MAP of SGLT2 inhibitor alone” value in data set [4] is −13±3 mmHg.

Turning to `CC(=O)S[C@@H]1CC2=CC(=O)CC[C@]2(C)[C@H]2CC[C@@]3(C)[C@@H](CC[C@@]34CCC(=O)O4)[C@H]12` [spironolactone, reference compound], the “Blood pressure when added on top of Exforge HCT” value in data set [5] and in data set [6] was “further reduced blood pressure” in each case. On to canagliflozin [reference compound], for which the “Maximal effect on MAP of SGLT2 inhibitor alone” value in data set [4] is recorded as −9±1 mmHg.

These data come from patent US12144811B2, “Combination of a 4-pyrimidinesulfamide derivative with an SGLT-2 inhibitor for the treatment of endothelin related diseases” (IDORSIA PHARMACEUTICALS LTD, priority 2017, dated 2024).
